Measured values taken from US8299056B2 (Signal Pharmaceuticals, LLC, priority 2008, dated 2012).

What follows are compounds tested against T1, Syk (Homo sapiens, UniProt P43405) (assay: Syk HTRF assay). Settings: IC50 activity level, read-out: Activity Level.
T1 construct: purchased Carna Biosciences
Assay type: biochemical
In short: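 Read-out is the 665 nm/615 nm time-resolved fluorescence ratio after EDTA stop and Eu-anti-phosphotyrosine plus streptavidin-DyLight 647 detection. Reaction ran 1 h at room temperature with start mix of 87.5 μM ATP and 80 nM substrate peptide in pH 7.6 HEPES/MgCl2 buffer.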
Work on `c1ccc(Nc2nc3cccc(C4CCCCC4)n3n2)cc1` [Example 525, 5-cyclohexyl-N-phenyl-[1,2,4]triazolo[1,5-a]pyridin-2-amine] yielded an IC50 of 1000 to 10000 nM. In the case of `c1ccc(Nc2nc3cccc(-c4ccc5cn[nH]c5c4)n3n2)cc1` [Example 485, 5-(1H-indazol-6-yl)-N-phenyl-[1,2,4]triazolo[1,5-a]pyridin-2-amine], the IC50 is reported as 0.005 to 250 nM. `c1ccc(Nc2nc3cccc(Oc4ccccc4)n3n2)cc1` [Example 503, 5-phenoxy-N-phenyl-[1,2,4]triazolo[1,5-a]pyridin-2-amine] showed an IC50 of 1000 to 10000 nM. `Cc1cc(Nc2nc3cccc(CN4CCNC(=O)C4)n3n2)cc2c1C(C)(C)C(=O)N2` [Example 546] was tested, and the IC50 was 0.005 to 250 nM. `OC1(Cc2cccc3nc(Nc4ccc(F)cc4)nn23)CCNCC1` [Example 430, 4-((2-(4-fluorophenylamino)-[1,2,4]triazolo[1,5-a]pyridin-5-yl)methyl)piperidin-4-ol] showed an IC50 of 1000 to 10000 nM. For `Cc1nnc2cc(Nc3nc4cccc(N[C@H]5CC[C@@H](O)CC5)n4n3)ccn12` [Example 568, cis-4-(2-(3-methyl-[1,2,4]triazolo[4,3-a]pyridin-7-ylamino)-[1,2,4]triazolo[1,5-a]pyridin-5-ylamino)cyclohexanol], the IC50 was 0.005 to 250 nM. Compound `O[C@H]1CC[C@@H](Nc2cccc3nc(Nc4ccc(C(F)(F)F)cc4)nn23)CC1` [Example 453, cis-4-(2-(4-(trifluoromethyl)phenylamino)-[1,2,4]triazolo[1,5-a]pyridin-5-ylamino)cyclohexanol] has an IC50 of 0.005 to 250 nM. `c1cc(NC2CCCNC2)n2nc(Nc3ccc4cn[nH]c4c3)nc2c1` (stereo in doubt) [Example 464, (S)-N^2-(1H-indazol-6-yl)-N^5-(piperidin-3-yl)-[1,2,4]triazolo[1,5-a]pyridine-2,5-diamine] showed an IC50 of 0.005 to 250 nM.

Same assay, conditions: activity levels A-D, read-out: Activity Level (IC50 in the Syk HTRF assay)
With `OC[C@H]1CCN(Cc2cccc3nc(Nc4ccc(C(F)(F)F)cc4)nn23)C1` [Example 324, (S)-(1-((2-(4-(trifluoromethyl)phenylamino)-[1,2,4]triazolo[1,5-a]pyridin-5-yl)methyl)pyrrolidin-3-yl)methanol] the IC50 was 1000 to 10000 nM. For `Cc1n[nH]c2cc(Nc3nc4cccc(C(O)C5CCOCC5)n4n3)ccc12` (stereo not shown) [Example 200, (2-(3-methyl-1H-indazol-6-ylamino)-[1,2,4]triazolo[1,5-a]pyridin-5-yl)(tetrahydro-2H-pyran-4-yl)methanol], the IC50 was 500 to 1000 nM. `CNC(=O)CNCc1cccc2nc(Nc3ccc(C(F)(F)F)cc3)nn12` [Example 213, N-methyl-2-((2-(4-(trifluoromethyl)phenylamino)-[1,2,4]triazolo[1,5-a]pyrridin-5-yl)methylamino)acetamide] was tested, and the IC50 was 1000 to 10000 nM. `CC1CN(Cc2cccc3nc(Nc4ccc(C(F)(F)F)cc4)nn23)CC(=O)N1` (stereo not shown) [Example 282, 6-methyl-4-((2-(4-(trifluoromethyl)phenylamino)-[1,2,4]triazolo[1,5-a]pyridin-5-yl)methyl)piperazin-2-one] gave an IC50 of 1000 to 10000 nM. `CN(C)c1ccc(Nc2nc3cccc(-c4ccc5nc(CO)[nH]c5c4)n3n2)cn1` [Example 298, (6-(2-(6-(dimethylamino)pyridin-3-ylamino)-[1,2,4]triazolo[1,5-a]pyridin-5-yl)-1H-benzo[d]imidazol-2-yl)methanol] showed an IC50 of 0.005 to 250 nM. `CNC(=O)c1ccc(Nc2nc3cccc(OC4CCC(N)CC4)n3n2)cc1` (stereo in doubt) [Example 291, trans-4-(5-(4-aminocyclohexyloxy)-[1,2,4]triazolo[1,5-a]pyridin-2-ylamino)-N-methylbenzamide] showed an IC50 of 250 to 500 nM. `COCc1n[nH]c2cc(Nc3nc4cccc(N[C@H]5CC[C@@H](O)CC5)n4n3)ccc12` [Example 231, cis-4-(2-(3-(methoxymethyl)-1H-indazol-6-ylamino)-[1,2,4]triazolo[1,5-a]pyridin-5-ylamino)cyclohexanol] gave an IC50 of 0.005 to 250 nM. `COc1cccc(Nc2nc3cccc(N[C@H]4CC[C@@H](O)CC4)n3n2)n1` [Example 342, cis-4-(2-(6-methoxypyridin-2-ylamino)-[1,2,4]triazolo[1,5-a]pyridin-5-ylamino)cyclohexanol] gave an IC50 of 1000 to 10000 nM. In the case of `FC(F)(F)c1ccc(Nc2nc3cccc(CN4CCOCC4)n3n2)cc1` [Example 308, 5-(morpholinomethyl)-N-(4-(trifluoromethyl)phenyl)-[1,2,4]triazolo[1,5-a]pyridin-2-amine], the IC50 is reported as 1000 to 10000 nM. In the case of `Cc1n[nH]c2cc(Nc3nc4cccc(CN5CCN(c6ccc7c(C)n[nH]c7c6)C(=O)C5)n4n3)ccc12` [Example 234, 1-(3-methyl-1H-indazol-6-yl)-4-((2-(3-methyl-1H-indazol-6-ylamino)-[1,2,4]triazolo[1,5-a]pyridin-5-yl)methyl)piperazin-2-one], the IC50 is reported as 1000 to 10000 nM. `O[C@H]1CCCC[C@@H]1Nc1cccc2nc(Nc3ccc(C(F)(F)F)cc3)nn12` [Example 334, (1S,2S)-2-(2-(4-(trifluoromethyl)phenylamino)-[1,2,4]triazolo[1,5-a]pyridin-5-ylamino)cyclohexanol] gave an IC50 of 1000 to 10000 nM. `OC1CCN(c2cccc3nc(Nc4ccc(C(F)(F)F)cc4)nn23)CC1` [Example 345, 1-(2-(4-(trifluoromethyl)phenylamino)-[1,2,4]triazolo[1,5-a]pyridin-5-yl)piperidin-4-ol] showed an IC50 of 500 to 1000 nM. Work on `CNC(=O)c1ccc(Nc2nc3cccc(N4CCCCC4)n3n2)cc1` [Example 247, N-methyl-4-(5-(piperidin-1-yl)-[1,2,4]triazolo[1,5-a]pyridin-2-ylamino)benzamide] yielded an IC50 of 500 to 1000 nM. `CC(NCc1cccc2nc(Nc3ccc(C(F)(F)F)cc3)nn12)C(N)=O` (racemic) [Example 233, (±)-2-((2-(4-(trifluoromethyl)phenylamino)-[1,2,4]triazolo[1,5-a]pyridin-5-yl)methylamino)propanamide] was tested, and the IC50 was 500 to 1000 nM. For `NC(=O)[C@H]1CC[C@@H](Oc2cccc3nc(Nc4ccc(C(F)(F)F)cc4)nn23)CC1` [Example 344, cis-4-(2-(4-(trifluoromethyl)phenylamino)-[1,2,4]triazolo[1,5-a]pyridin-5-yloxy)cyclohexanecarboxamide], the IC50 was 500 to 1000 nM.

Same assay, conditions: read-out: Activity Level (Syk HTRF assay IC50)
`Cc1n[nH]c2cc(Nc3nc4cccc(NC[C@@H]5CC[C@H](O)C5)n4n3)ccc12` [Example 178, (1S,3R)-3-((2-(3-methyl-1H-indazol-6-ylamino)-[1,2,4]triazolo[1,5-a]pyridin-5-ylamino)methyl)cyclopentanol] showed an IC50 of 0.005 to 250 nM. Compound `NC(=O)c1cccc(Nc2nc3cccc(-c4ccccc4)n3n2)c1` [compound 67, 3-(5-phenyl-[1,2,4]triazolo[1,5-a]pyridin-2-ylamino)benzamide] has an IC50 of 500 to 1000 nM. `O=C1NCc2cc(Nc3nc4cccc(-c5ccccc5)n4n3)ccc21` [compound 69, 5-(5-phenyl-[1,2,4]triazolo[1,5-a]pyridin-2-ylamino)isoindolin-1-one] gave an IC50 of 250 to 500 nM. Work on `NC(=O)c1cc(Nc2nc3cccc(-c4ccccc4)n3n2)ccn1` [compound 51, 4-(5-phenyl-[1,2,4]triazolo[1,5-a]pyridin-2-ylamino)picolinamide] yielded an IC50 of 1000 to 10000 nM. `c1ccc(-c2cccc3nc(Nc4cncnc4)nn23)cc1` [compound 74, 5-phenyl-N-(pyrimidin-5-yl)-[1,2,4]triazolo[1,5-a]pyridin-2-amine] showed an IC50 of 1000 to 10000 nM. `O=C1c2ccc(Nc3nc4cccc(N[C@H]5CC[C@@H](O)CC5)n4n3)cc2CN1CCO` [Example 198, cis-5-(5-(4-hydroxycyclohexylamino)-[1,2,4]triazolo[1,5-a]pyridin-2-ylamino)-2-(2-hydroxyethyl)isoindolin-1-one] showed an IC50 of 0.005 to 250 nM. `c1ccc(-c2cccc3nc(Nc4ccc(-c5ncn[nH]5)cc4)nn23)cc1` [compound 56, N-(4-(1H-1,2,4-triazol-5-yl)phenyl)-5-phenyl-[1,2,4]triazolo[1,5-a]pyridin-2-amine] gave an IC50 of 0.005 to 250 nM. Compound `Nc1n[nH]c2cc(Nc3nc4cccc(-c5ccccc5)n4n3)ccc12` [compound 57] has an IC50 of 0.005 to 250 nM. For `O[C@H]1CC[C@@H](Nc2cccc3nc(Nc4ccn5ccnc5c4)nn23)CC1` [compound 112, cis-4-(2-(imidazo[1,2-a]pyridin-7-ylamino)-[1,2,4]triazolo[1,5-a]pyridin-5-ylamino)cyclohexanol], the IC50 was 1000 to 10000 nM. `Nc1noc2cc(Nc3nc4cccc(-c5ccccc5)n4n3)ccc12` [compound 44] showed an IC50 of 250 to 500 nM. Work on `c1ccc(-c2cccc3nc(Nc4ccc5cn[nH]c5c4)nn23)cc1` [compound 68] yielded an IC50 of 0.005 to 250 nM. In the case of `CC(C)n1ncc2ccc(Nc3nc4cccc(CN5CCNC(=O)C5)n4n3)cc21` [Example 188, 4-((2-(1-isopropyl-1H-indazol-6-ylamino)-[1,2,4]triazolo[1,5-a]pyridin-5-yl)methyl)piperazin-2-one], the IC50 is reported as 0.005 to 250 nM. With `c1cc(CC2CCOCC2)n2nc(Nc3cnc4cn[nH]c4c3)nc2c1` [compound 106, N-(5-((tetrahydro-2H-pyran-4-yl)methyl)-[1,2,4]triazolo[1,5-a]pyridin-2-yl)-1H-pyrazolo[4,3-b]pyridin-6-amine] the IC50 was 500 to 1000 nM. `Cc1n[nH]c2cc(Nc3nc4cccc(O[C@@H]5COC[C@@H]5O)n4n3)ccc12` (racemic) [Example 165, (±)-cis-4-(2-(3-methyl-1H-indazol-6-ylamino)-[1,2,4]triazolo[1,5-a]pyridin-5-yloxy)tetrahydrofuran-3-ol] showed an IC50 of 250 to 500 nM. `Cc1cc(Nc2nc3cccc(N[C@H]4CC[C@@H](O)CC4)n3n2)cc2c1C(C)(C)C(=O)N2` [compound 109, cis-6-(5-(4-hydroxycyclohexylamino)-[1,2,4]triazolo[1,5-a]pyridin-2-ylamino)-3,3,4-trimethylindolin-2-one] showed an IC50 of 0.005 to 250 nM. `CN1CCC(NC(=O)c2ccc(Nc3nc4cccc(-c5cccc(O)c5)n4n3)cc2)CC1` [compound 34, 4-(5-(3-hydroxyphenyl)-[1,2,4]triazolo[1,5-a]pyridin-2-ylamino)-N-(1-methylpiperidin-4-yl)benzamide] showed an IC50 of 0.005 to 250 nM. Work on `c1ccc(-c2cccc3nc(Nc4ccncc4)nn23)cc1` [compound 58, 5-phenyl-N-(pyridin-4-yl)-[1,2,4]triazolo[1,5-a]pyridin-2-amine] yielded an IC50 of 500 to 1000 nM.
